Data as given in PubChem BioAssay AID1745844 (Carcinogenic Potency Database (CPDB), 2022).
Active and inactive are the calls of the source. How the calls were made is not given here.

Tested on: rodent lifetime carcinogenesis bioassay, tumor incidence TD50
Assay: chronic cancer bioassays in animals – CPDB, compiled studies (AID 1745844)

SMILES: [K+]
- TD50 (rat, strain F344/DuCrj, females, in drinking water, site: submandibular salivary gland, lesion: squamous-cell carcinoma, dosed 104 weeks, study length 104 weeks): 560 mg/kg/day
- TD50 (rat, strain F344/DuCrj, females, in drinking water, site: uterus, lesion: endometrial stromal polyp, dosed 104 weeks, study length 104 weeks): 204 mg/kg/day (inactive)
- TD50 (rat, strain F344/DuCrj, males, in drinking water, site: submandibular salivary gland, lesion: squamous-cell carcinoma, dosed 104 weeks, study length 104 weeks): 363 mg/kg/day

SMILES: ClCOCCCCCCOCCl
- carcinogen call (mouse, strain Ha/ICR, females, i.p., site: abdomen, lesion: sarcoma, dosed 81 weeks, study length 81 weeks): negative (inactive)

SMILES: CO[C@@H]1[C@@H](O[C@@H]2O[C@H](C)[C@@H](O[C@H]3C[C@@](C)(O)[C@@H](OC(=O)CC(C)C)[C@H](C)O3)[C@H](N(C)C)[C@H]2O)[C@@H](CC=O)C[C@@H](C)[C@@H](O)/C=C/C=C/C[C@@H](C)OC(=O)C[C@H]1OC(C)=O
- carcinogen call (rat, strain F344/DuCrj, females, in feed, site: liver, lesion: hepatocellular adenoma, dosed 104 weeks, study length 106 weeks): negative (inactive)
- carcinogen call (rat, strain F344/DuCrj, females, in feed, site: liver, lesion: one or several types, types not named, dosed 52 weeks, study length 52 weeks): negative (inactive)
- carcinogen call (rat, strain F344/DuCrj, males, in feed, site: liver, lesion: hepatocellular adenoma, dosed 104 weeks, study length 106 weeks): negative (inactive)
- TD50 (rat, strain F344/DuCrj, males, in feed, site: liver, lesion: hepatocellular carcinoma, dosed 104 weeks, study length 106 weeks): 51300 mg/kg/day (inactive)
- carcinogen call (rat, strain F344/DuCrj, males, in feed, site: liver, lesion: one or several types, types not named, dosed 52 weeks, study length 52 weeks): negative (inactive)

SMILES: Cc1c(N)nc(C)c2c1[nH]c1ccccc12
- TD50 (mouse, strain CDF1, females, in feed, site: liver, lesion: hepatocellular carcinoma, dosed 88 weeks, study length 88 weeks): 29.6 mg/kg/day
- TD50 (mouse, strain CDF1, females, in feed, site: liver, lesion: several types, types named in the paper, dosed 88 weeks, study length 88 weeks): 25 mg/kg/day
- TD50 (mouse, strain CDF1, males, in feed, site: liver, lesion: hepatocellular carcinoma, dosed 88 weeks, study length 88 weeks): 112 mg/kg/day
- TD50 (mouse, strain CDF1, males, in feed, site: liver, lesion: several types, types named in the paper, dosed 88 weeks, study length 88 weeks): 109 mg/kg/day
- TD50 (rat, strain F344/DuCrj, females, in feed, site: liver, lesion: hepatocellular carcinoma, dosed 52 weeks, study length 52 weeks): 0.577 mg/kg/day
- TD50 (rat, strain F344/DuCrj, males, in feed, site: liver, lesion: hepatocellular carcinoma, dosed 52 weeks, study length 52 weeks): 0.574 mg/kg/day

SMILES: CN(N=O)c1cccnc1
- carcinogen call (rat, strain BD VI, females, by gavage, site: any site (literature study), lesion: benign tumor, dosed 116 weeks, study length 116 weeks): negative (inactive)
- TD50 (rat, strain BD VI, females, by gavage, site: any site (literature study), lesion: malignant tumor, dosed 116 weeks, study length 116 weeks): 6.09 mg/kg/day (inactive)
- carcinogen call (rat, strain BD VI, females, by gavage, site: any site (literature study), lesion: several types, types named in the paper, dosed 116 weeks, study length 116 weeks): negative (inactive)
- carcinogen call (rat, strain BD VI, females, by gavage, site: liver, lesion: several types, types named in the paper, dosed 116 weeks, study length 116 weeks): negative (inactive)

SMILES: Brc1cc(Br)c2cccnc2c1
- carcinogen call (rat, strain Fischer 344, females, in feed, site: liver, lesion: hyperplastic nodule, dosed 104 weeks, study length 104 weeks): negative (inactive)
- TD50 (rat, strain Fischer 344, males, in feed, site: liver, lesion: hyperplastic nodule, dosed 104 weeks, study length 104 weeks): 754 mg/kg/day (inactive)
- TD50 (rat, strain Fischer 344, males, in feed, site: testis, lesion: interstitial-cell tumor, dosed 104 weeks, study length 104 weeks): 69.4 mg/kg/day (inactive)

SMILES: Nc1ccc2oc3ccccc3c2c1
- carcinogen call (mouse, strain (C57 x IF)F1, females, in feed, site: liver, lesion: several types, types named in the paper, dosed 52 weeks, study length 58 weeks): positive
- TD50 (mouse, strain (C57 x IF)F1, males, in feed, site: liver, lesion: malignant hepatoma, dosed 52 weeks, study length 67 weeks): 8.67 mg/kg/day
- TD50 (mouse, strain (C57 x IF)F1, males, in feed, site: liver, lesion: several types, types named in the paper, dosed 52 weeks, study length 67 weeks): 5.73 mg/kg/day
- TD50 (mouse, strain (C57 x IF)F1, males, in feed, site: urinary bladder, lesion: carcinoma, dosed 52 weeks, study length 67 weeks): 22.3 mg/kg/day

SMILES: N
- carcinogen call (mouse, strain C3H (MTV+), females, in drinking water, site: mammary gland, lesion: adenocarcinoma, dosed 104 weeks, study length 104 weeks): negative (inactive)
- carcinogen call (mouse, strain Swiss, females, in drinking water, site: lung, lesion: several types, types named in the paper, dosed 119 weeks, study length 121 weeks): negative (inactive)
- TD50 (mouse, strain Swiss, males, in drinking water, site: liver, lesion: several types, types named in the paper, dosed 120 weeks, study length 124 weeks): 26700 mg/kg/day
- TD50 (mouse, strain Swiss, males, in drinking water, site: lung, lesion: adenocarcinoma, dosed 120 weeks, study length 124 weeks): 7330 mg/kg/day (inactive)
- TD50 (mouse, strain Swiss, males, in drinking water, site: lung, lesion: several types, types named in the paper, dosed 120 weeks, study length 124 weeks): 15300 mg/kg/day (inactive)

SMILES: O=C1CCC(=O)O1
- carcinogen call (mouse, strain B6C3F1, females, by gavage, site: any site (literature study), lesion: several types, types named in the paper, dosed 103 weeks, study length 104 weeks): negative (inactive)
- TD50 (mouse, strain B6C3F1, females, by gavage, site: lung, lesion: alveolar/bronchiolar adenoma + alveolar/bronchiolar carcinoma, dosed 103 weeks, study length 104 weeks): 4690 mg/kg/day
- carcinogen call (mouse, strain B6C3F1, males, by gavage, site: any site (literature study), lesion: several types, types named in the paper, dosed 103 weeks, study length 104 weeks): negative (inactive)
- carcinogen call (rat, strain Fischer 344, females, by gavage, site: any site (literature study), lesion: several types, types named in the paper, dosed 103 weeks, study length 105 weeks): negative (inactive)
- TD50 (rat, strain Fischer 344, females, by gavage, site: liver, lesion: hepatocellular adenoma + hepatocellular carcinoma + neoplastic nodule, dosed 103 weeks, study length 105 weeks): 1300 mg/kg/day
- carcinogen call (rat, strain Fischer 344, males, by gavage, site: any site (literature study), lesion: several types, types named in the paper, dosed 103 weeks, study length 105 weeks): negative (inactive)
